One assay has as its target T1, human 11β-HSD-2 (Homo sapiens, UniProt P80365).
T1 sequence (P80365 1-405): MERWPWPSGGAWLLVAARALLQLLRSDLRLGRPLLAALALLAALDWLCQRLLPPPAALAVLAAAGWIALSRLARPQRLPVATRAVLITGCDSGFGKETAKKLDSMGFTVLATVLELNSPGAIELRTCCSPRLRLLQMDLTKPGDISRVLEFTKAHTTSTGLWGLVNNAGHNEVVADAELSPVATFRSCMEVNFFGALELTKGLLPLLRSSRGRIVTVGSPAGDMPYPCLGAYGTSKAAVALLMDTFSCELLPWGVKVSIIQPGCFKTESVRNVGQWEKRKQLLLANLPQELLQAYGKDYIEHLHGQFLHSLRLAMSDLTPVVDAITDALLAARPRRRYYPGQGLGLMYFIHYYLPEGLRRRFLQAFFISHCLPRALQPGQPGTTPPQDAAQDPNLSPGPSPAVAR
In words: Human 11β-HSD-2 enzymatic SPA assay. It counts as biochemical. On the procedure: (§1) The ability of test compounds to inhibit human 11β-HSD-1 enzymatic activity in vitro was evaluated in a Scintillation Proximity Assay (SPA). […] The reaction was stopped by adding a non-specific 11β-HSD inhibitor, 18β-glycyrrhetinic acid. The tritiated cortisol was captured by a mixture of an anti-cortisol monoclonal antibody and SPA beads coated with anti-mouse antibodies. The reaction plate was shaken at room temperature and the radioactivity bound to SPA beads was then measured on a β-scintillation counter. The 11β-HSD-1 assay was carried out in 96-well microtiter plates in a total volume of 220 μl. […] In order to drive the reaction in the forward direction, 1 mM G-6-P was also added. Solid compound was dissolved in DMSO to make a 10 mM stock followed by a subsequent 10-fold dilution with 3% DMSO in Tris/EDTA buffer (pH 7.4). 22 μl of titrated compounds was then added in triplicate to the substrate. Reactions were initiated by the addition of 10 μl of 0.1 mg/ml E. coli lysates overexpressing 11β-HSD-1 enzyme. After shaking and incubating plates for 30 minutes at room temperature, reactions were stopped by adding 10 μl of 1 mM glycyrrhetinic acid. The product, tritiated cortisol, was captured by adding 10 μl of 1 μM monoclonal anti-cortisol antibodies and 100 μl SPA beads coated with anti-mouse antibodies. After shaking for 30 minutes, plates were read on a liquid scintillation counter Topcount. Percent inhibition was calculated based on the background and the maximal signal. Wells that contained substrate without compound or enzyme were used as the background, while the wells that contained substrate and enzyme without any compound were considered as maximal signal. Percent of inhibition of each compound was calculated relative to the maximal signal and IC50 curves were generated. This assay was applied to 11β-HSD-2 as well, whereby tritiated cortisol and NAD^+ were used as substrate and cofactor, respectively.

The target of assay [1] is T2, truncated human 11β-HSD-1 enzyme (24-287AA) (Homo sapiens, UniProt P28845).
T2 construct: truncated human 11β-HSD-1 enzyme (24-287AA); made in house; host or cells: E. coli (lysate)
T2 sequence (P28845 24-287): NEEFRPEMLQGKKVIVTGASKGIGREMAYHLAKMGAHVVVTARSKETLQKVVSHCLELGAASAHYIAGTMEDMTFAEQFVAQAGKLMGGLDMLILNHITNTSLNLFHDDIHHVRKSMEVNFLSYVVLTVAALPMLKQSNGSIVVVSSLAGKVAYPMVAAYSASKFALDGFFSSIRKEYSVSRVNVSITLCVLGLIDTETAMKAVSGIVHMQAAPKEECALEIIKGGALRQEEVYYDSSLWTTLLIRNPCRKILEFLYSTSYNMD
In words: Human 11β-HSD-1 enzymatic SPA assay. Type of assay: biochemical. As for the experimental part:
as §1

The structures appear in SMILES notation. pIC50: −log10 of the molar value. Like-named read-outs stand apart in the source and are kept apart here.

Among the data in patent US8871208B2, “11-β-hydroxysteroid dehydrogenase type 1 (11β-HSD1) inhibitors and uses thereof” (AbbVie Inc., priority 2009, dated 2014) are IC50 values, retold here.

By pIC50 is commonly meant the negative decadic logarithm of the IC50, by convention in mol/L. A low value points to a large IC50. As to `CC(C(=O)NC1C2CC3CC1CC(O)(C3)C2)N1CCCCCC1` (stereo not shown) [2-azepan-1-yl-N-[(E)-5-hydroxy-2-adamantyl]propanamide], the negative-log IC50 (pIC50) against human 11β-HSD-2 (human enzyme, SPA) was < 5.00; in assay [1] (human enzyme, SPA), 7.04.

In the case of `CC1(C)C(=O)N(C2C3CC4CC2CC(C(N)=O)(C4)C3)CC1COc1ccc(C(F)(F)F)cn1` (stereo not shown) [(E)-4-[3,3-dimethyl-2-oxo-4-({[5-(trifluoromethyl)pyridin-2-yl]oxy}methyl)pyrrolidin-1-yl]adamantane-1-carboxamide], the negative logarithm of the IC50 (pIC50) on human 11β-HSD-2 (human enzyme, SPA) was 5.87; in assay [1] (human enzyme, SPA), 7.41. On human 11β-HSD-2 (human enzyme, SPA), `CC1(C(=O)N[C@@H]2[C@@H]3C[C@@H]4C[C@H]2C[C@@](C(N)=O)(C4)C3)CCN(Cc2cccc(Cl)c2)C1=O` (stereo partly shown) [(E)-4-(aminocarbonyl)-2-adamantyl]-1-(3-chlorobenzyl)-3-methyl-2-oxopyrrolidine-3-carboxamide] gave a negative-log IC50 (pIC50) of 5.00. As for `CN(CC1CN(C2CCCCCC2)C(=O)C1(C)C)c1ccccc1F` (stereo not shown) [1-cycloheptyl-4-{[(2-fluorophenyl)(methyl)amino]methyl}-3,3-dimethylpyrrolidin-2-one], the pIC50 on human 11β-HSD-2 (human enzyme, SPA) was < 5.00; in assay [1] (human enzyme, SPA), 7.14. Consider `NC(=O)C12CC3CC(C1)C(NC(=O)C1(Oc4ccc(Cl)cc4)CCC1)C(C3)C2` (stereo not shown) [(E)-4-({[1-(4-chlorophenoxy)cyclobutyl]carbonyl}amino)adamantane-1-carboxamide], for which the pIC50 at human 11β-HSD-2 (human enzyme, SPA) is 4.05; in assay [1] (human enzyme, SPA), 7.05. For `CC(C)(OCc1ccc(C(F)(F)F)cc1)C(=O)N[C@@H]1[C@@H]2C[C@@H]3C[C@H]1C[C@@](C(N)=O)(C3)C2` [(E)-4-[(2-methyl-2-{[4-(trifluoromethyl)benzyl]oxy}propanoyl)amino]adamantane-1-carboxamide], the pIC50 against human 11β-HSD-2 (human enzyme, SPA) was < 5.00; in assay [1] (human enzyme, SPA), 7.55.

Consider `CC(C)(Oc1ccc(O)cc1)C(=O)N[C@@H]1[C@@H]2C[C@@H]3C[C@H]1C[C@@](C(N)=O)(C3)C2` [(E)-4-{[2-(4-hydroxyphenoxy)-2-methylpropanoyl]amino}adamantane-1-carboxamide], for which the pIC50 is 4.46 against human 11β-HSD-2 (human enzyme, SPA) and 7.74 in assay [1] (human enzyme, SPA). Regarding `CC1(C)C(=O)N(C2C3CCCC2CC(C(N)=O)C3)CC1COc1ccc(C#N)cn1` (stereo not shown) [9-(4-{[(5-cyanopyridin-2-yl)oxy]methyl}-3,3-dimethyl-2-oxopyrrolidin-1-yl)bicyclo[3.3.1]nonane-3-carboxamide], the figures for the pIC50 (against human 11β-HSD-2; in assay [1]) were 5.08 and 7.29, respectively. For the molecule `CC(C)(Oc1ccc(-n2cccn2)cn1)C(=O)N[C@@H]1[C@@H]2C[C@@H]3C[C@H]1C[C@@](C(N)=O)(C3)C2` [(E)-4-[(2-methyl-2-{[5-(1H-pyrazol-1-yl)pyridin-2-yl]oxy}propanoyl)amino]adamantine-1-carboxamide], the pIC50 at human 11β-HSD-2 (human enzyme, SPA) was < 4.00; in assay [1] (human enzyme, SPA) it was 7.52.

Take `O=C(O)C12CC3CC(C1)C(NC(=O)C1(c4ccc(Cl)cc4)CCC1)C(C3)C2` (stereo not shown) [(E)-4-{[1-(4-chloro-phenyl)-cyclobutanecarbonyl]-amino}-adamantane-1-carboxylic acid]: the negative logarithm of the IC50 (pIC50) against human 11β-HSD-2 (human enzyme, SPA) is < 5.00; in assay [1] (human enzyme, SPA), 7.37. On the same counts, the results for `CCN(CC)S(=O)(=O)c1cc(Cl)ccc1OC(C)(C)C(=O)NC1C2CC3CC1CC(C(N)=O)(C3)C2` (stereo not shown) [(E)-4-[(2-{4-chloro-2-[(diethylamino)sulfonyl]phenoxy}-2-methylpropanoyl)amino]adamantane-1-carboxamide] are 4.19 and 7.17. For the molecule `CC(C)(C)OC(=O)Nc1ccc(OC(C)(C)C(=O)N[C@@H]2[C@@H]3C[C@@H]4C[C@H]2C[C@@](C(N)=O)(C4)C3)cc1` [tert-butyl 4-(2-{[(E)-5-(aminocarbonyl)-2-adamantyl]amino}-1,1-dimethyl-2-oxoethoxy)phenylcarbamate], at human 11β-HSD-2 (human enzyme, SPA), the negative-log IC50 (pIC50) was 4.43. Still for that read-out and setting: as for `CC1CN(c2ccccn2)CCN1C(C)(C)C(=O)NC1C2CC3CC1CC(C(=O)O)(C3)C2` [(E)-4-({2-methyl-2-[(2S)-2-methyl-4-pyridin-2-ylpiperazin-1-yl]propanoyl}amino) adamantane-1-carboxylic acid], the figure is < 4.52.

For `CC(C)(Oc1ccc(Cl)cc1)C(=O)N[C@@H]1[C@@H]2C[C@@H]3C[C@H]1C[C@@](CC(N)=O)(C3)C2` [N-[(E)-5-(2-amino-2-oxoethyl)-2-adamantyl]-2-(4-chlorophenoxy)-2-methylpropanamide], the negative-log IC50 (pIC50) on human 11β-HSD-2 (human enzyme, SPA) was 4.68; in assay [1] (human enzyme, SPA), 7.37. On the same counts, the results for `CC(C)(Oc1ccc(Cl)cc1)C(=O)NC1C2CC3CC1CC(CS(=O)(=O)NCc1ccc(C(=O)O)cc1)(C3)C2` (stereo not shown) [4-[({[((E)-4-{[2-(4-chlorophenoxy)-2-methylpropanoyl]amino}-1-adamantyl)methyl]sulfonyl}amino)methyl]benzoic acid] are 4.74 and 7.32. Turning to `O=C(CN1CCN(c2ccc(C(F)(F)F)cn2)CC1)N[C@H]1[C@@H]2C[C@@H]3C[C@H]1C[C@@](F)(C3)C2` [N—[(Z)-5-fluoro-2-adamantyl]-2-{4-[5-(trifluoromethyl)pyridin-2-yl]piperazin-1-yl}acetamide], the pIC50 against human 11β-HSD-2 (human enzyme, SPA) was < 5.00; in assay [1] it was 7.09.

As to `CC(C)(C(=O)NC1C2CC3CC1CC(C(=O)O)(C3)C2)N1CCC(F)C1` [(E)-4-({2-[(3R)-3-Fluoropyrrolidin-1-yl]-2-methylpropanoyl}amino)adamantane-1-carboxylic acid], the pIC50 was < 5.00 on human 11β-HSD-2 (human enzyme, SPA) and 7.24 in assay [1] (human enzyme, SPA). The like results for `CC(C)(Oc1ccc(F)cc1Cl)C(=O)N[C@@H]1[C@@H]2C[C@@H]3C[C@H]1C[C@@](S(N)(=O)=O)(C3)C2` [N-[(E)-5-(aminosulfonyl)-2-adamantyl]-2-(2-chloro-4-fluorophenoxy)-2-methyl-propanamide] were, in that order, < 4.00 and 7.05.

For `CC(C)(C(=O)NC1C2CC3CC1CC(C(N)=O)(C3)C2)N1CCN(c2cnccn2)CC1` (stereo not shown) [(E)-4-{[2-methyl-2-(4-pyrazin-2-ylpiperazin-1-yl)propanoyl]amino}adamantane-1-carboxamide], the pIC50 at human 11β-HSD-2 (human enzyme, SPA) is < 4.52; in assay [1] (human enzyme, SPA), 7.46. Turning to `NC(=O)[C@]12C[C@@H]3C[C@H](C1)[C@@H](NC(=O)C1(c4ccc(Cl)cc4)CC1)[C@@H](C3)C2` [(E)-4-({[1-(4-chlorophenyl)cyclopropyl]carbonyl}amino)adamantane-1-carboxamide], the pIC50 is < 4.52 at human 11β-HSD-2 (human enzyme, SPA) and 7.48 in assay [1] (human enzyme, SPA).

On to `CC(C)(Oc1ccc(Cl)cc1)C(=O)N[C@@H]1[C@@H]2C[C@@H]3C[C@H]1C[C@@](CS(N)(=O)=O)(C3)C2` [N-{(E)-5-[(aminosulfonyl)methyl]-2-adamantyl}-2-(4-chlorophenoxy)-2-methyl propanamide], for which the pIC50 in assay [1] (human enzyme, SPA) was 7.02. Molecule `CC1(C)C(=O)N(C2C3CC4CC2CC(C(N)=O)(C4)C3)CC1COc1ccc(-n2ccnc2)cc1` (stereo not shown) [(E)-4-(4-{[4-(1H-imidazol-1-yl)phenoxy]methyl}-3,3-dimethyl-2-oxopyrrolidin-1-yl)adamantane-1-carboxamide] gave a pIC50 in assay [1] (human enzyme, SPA) of 7.12. Take `CC(C)(C(=O)N[C@@H]1[C@@H]2C[C@@H]3C[C@H]1C[C@@](C(N)=O)(C3)C2)c1ccc(-c2cccnc2)cc1` [(E)-4-{[2-methyl-2-(4-pyridin-3-ylphenyl)propanoyl]amino}adamantane-1-carboxamide]: the pIC50 against human 11β-HSD-2 (human enzyme, SPA) was 4.36.
